Laboratory results published in ChEMBL document CHEMBL3885881, “DrugMatrix”.

Species: Rattus norvegicus
Assay: DrugMatrix - Regimen: Daily Repeat
Format: toxicity, organism-based, Sprague-Dawley
Design: regimen Daily Repeat, gender Male, age 6-8 weeks
Conditions: in vivo, po, route oral GAVAGE; for ALANINE AMINOTRANSFERASE / ALBUMIN / ALKALINE PHOSPHATASE / ASPARTATE AMINOTRANSFERASE / BLOOD UREA NITROGEN / CARBON DIOXIDE / CHLORIDE / CHOLESTEROL / CREATINE PHOSPHOKINASE / CREATININE / GLUCOSE / LACTATE DEHYDROGENASE / LIPASE / PHOSPHORUS / POTASSIUM / SODIUM / TOTAL BILIRUBIN / TOTAL PROTEIN / URIC ACID: tissue Plasma
[1] = 0 mg/kg, 120 h, tissue Blood, dose level Control, time 5 day, vehicle 100 % WATER
[2] = 0 mg/kg, 120 h, dose level Control, time 5 day, […]
[3] = 0 mg/kg, 120 h, dose level Control, time 5 day, vehicle 100 % WATER
[4] = 20 mg/kg, 72 h, tissue Blood, dose level Low, time 3 day, […]
[5] = 20 mg/kg, 72 h, dose level Low, time 3 day, […]
[6] = 20 mg/kg, 120 h, tissue Blood, dose level Low, time 5 day, […]

With `Cn1cnc([N+](=O)[O-])c1Sc1ncnc2nc[nH]c12` [AZATHIOPRINE] the “ABSOLUTE LYMPHOCYTE” value [1] was 8181 CELLS/uL, the “ABSOLUTE MONOCYTE” value [1] was 82.67 CELLS/uL and the “ABSOLUTE SEGMENTED NEUTROPHIL” value [1] was 435.17 CELLS/uL. The EOSINOPHIL [1] was 0.5%, the HEMATOCRIT [1] was 33.83% and the HEMOGLOBIN [1] was 13.37 G/DL. The “LEUKOCYTE COUNT” value [1] was 8.73 x10E3/uL, the LYMPHOCYTE [1] was 93.5% and the “MEAN CORPUSCULAR HEMOGLOBIN” value [1] was 25.2 pg. The “MEAN CORPUSCULAR HEMOGLOBIN CONCENTRATION” value [1] was 39.53 G/DL, the “MEAN CORPUSCULAR VOLUME” value [1] was 63.73 fL and the MONOCYTE [1] was 1%. The NEUTROPHIL [1] was 5%, the “NUCLEATED RED BLOOD CELLS” value [1] was 0 /100WBC and the “PLATELET COUNT” value [1] was 1057.33 x10E3/uL. For the same compound, the “ALANINE AMINOTRANSFERASE” value [2] was 59.67 u/L, the ALBUMIN [2] was 3.87 G/DL and the “ALKALINE PHOSPHATASE” value [2] was 452 u/L. The “ASPARTATE AMINOTRANSFERASE” value [2] was 81.33 u/L, the “BLOOD UREA NITROGEN” value [2] was 13.67 mg/dL and the “CARBON DIOXIDE” value [2] was 26.33 mmol/L. For the same compound, the CHLORIDE [2] was 103.67 MEQ/L, the CHOLESTEROL [2] was 65.67 mg/dL and the “CREATINE PHOSPHOKINASE” value [2] was 355.33 u/L. The CREATININE [2] was 0.14 mg/dL, the GLUCOSE [2] was 171.33 mg/dL and the “LACTATE DEHYDROGENASE” value [2] was 118 u/L. The LIPASE [2] was 11.33 u/L, the PHOSPHORUS [2] was 11.13 mg/dL and the POTASSIUM [2] was 5.18 MEQ/L. For the same compound, the SODIUM [2] was 143.17 MEQ/L, the “TOTAL BILIRUBIN” value [2] was 0.2 mg/dL and the “TOTAL PROTEIN” value [2] was 5.87 G/DL. For the same compound, the “URIC ACID” value [2] was 0.63 mg/dL, the “ALANINE AMINOTRANSFERASE” value [3] was 54.33 u/L and the ALBUMIN [3] was 4.07 G/DL. For the same compound, the “ALKALINE PHOSPHATASE” value [3] was 308.67 u/L, the “ASPARTATE AMINOTRANSFERASE” value [3] was 83.17 u/L and the “BLOOD UREA NITROGEN” value [3] was 14 mg/dL. For the same compound, the “CARBON DIOXIDE” value [3] was 34 mmol/L, the CHLORIDE [3] was 98 MEQ/L and the CHOLESTEROL [3] was 71.33 mg/dL. For the same compound, the “CREATINE PHOSPHOKINASE” value [3] was 266.5 u/L, the CREATININE [3] was 0.27 mg/dL and the GLUCOSE [3] was 133 mg/dL. For the same compound, the “LACTATE DEHYDROGENASE” value [3] was 127 u/L, the LIPASE [3] was 11.67 u/L and the PHOSPHORUS [3] was 10.6 mg/dL. For the same compound, the POTASSIUM [3] was 6.17 MEQ/L, the SODIUM [3] was 142.68 MEQ/L and the “TOTAL BILIRUBIN” value [3] was 0.15 mg/dL. The “TOTAL PROTEIN” value [3] was 6.03 G/DL, the “URIC ACID” value [3] was 0.75 mg/dL and the “ABSOLUTE BASOPHIL” value [4] was 0 CELLS/uL. The “ABSOLUTE EOSINOPHIL” value [4] was 0 CELLS/uL, the “ABSOLUTE LYMPHOCYTE” value [4] was 5839.67 CELLS/uL and the “ABSOLUTE MONOCYTE” value [4] was 204 CELLS/uL. The “ABSOLUTE SEGMENTED NEUTROPHIL” value [4] was 256.33 CELLS/uL, the BASOPHIL [4] was 0% and the EOSINOPHIL [4] was 0%. The “ERYTHROCYTE COUNT” value [4] was 4.55 x10E6/uL, the HEMATOCRIT [4] was 29% and the HEMOGLOBIN [4] was 11.47 G/DL. The “LEUKOCYTE COUNT” value [4] was 6.3 x10E3/uL, the LYMPHOCYTE [4] was 93% and the “MEAN CORPUSCULAR HEMOGLOBIN” value [4] was 25.37 pg. The “MEAN CORPUSCULAR HEMOGLOBIN CONCENTRATION” value [4] was 39.7 G/DL, the “MEAN CORPUSCULAR VOLUME” value [4] was 64 fL and the MONOCYTE [4] was 3%. The NEUTROPHIL [4] was 4%, the “NUCLEATED RED BLOOD CELLS” value [4] was 0.33 /100WBC and the “PLATELET COUNT” value [4] was 1104.33 x10E3/uL. The “ALANINE AMINOTRANSFERASE” value [5] was 61 u/L, the ALBUMIN [5] was 4.2 G/DL and the “ALKALINE PHOSPHATASE” value [5] was 326.33 u/L. The “ASPARTATE AMINOTRANSFERASE” value [5] was 82 u/L, the “BLOOD UREA NITROGEN” value [5] was 14 mg/dL and the “CARBON DIOXIDE” value [5] was 39.33 mmol/L. For the same compound, the CHLORIDE [5] was 106.33 MEQ/L, the CHOLESTEROL [5] was 92.67 mg/dL and the “CREATINE PHOSPHOKINASE” value [5] was 229 u/L. For the same compound, the CREATININE [5] was 0.21 mg/dL, the GLUCOSE [5] was 156.33 mg/dL and the “LACTATE DEHYDROGENASE” value [5] was 82.67 u/L. The LIPASE [5] was 11 u/L, the PHOSPHORUS [5] was 9.27 mg/dL and the POTASSIUM [5] was 5.07 MEQ/L. The SODIUM [5] was 137.8 MEQ/L, the “TOTAL BILIRUBIN” value [5] was 0.1 mg/dL and the “TOTAL PROTEIN” value [5] was 6.23 G/DL. The “URIC ACID” value [5] was 0.5 mg/dL, the “ABSOLUTE BASOPHIL” value [6] was 0 CELLS/uL and the “ABSOLUTE EOSINOPHIL” value [6] was 0 CELLS/uL. For the same compound, the “ABSOLUTE LYMPHOCYTE” value [6] was 5125.67 CELLS/uL.
